PubChem BioAssay (NCI)
Several values for one entry are separate records, joined by “and”; a condition that tells them apart may be missing. Equal entries are not always repeated.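 The compound was tested at five concentrations on cells cultured in 96-well plates, with a 48-hour exposure period. At the TGI there is no net growth.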

Experiments:
Assay in all cases: inhibition of tumour cell growth, NCI panel, 48 h
[1] = test system: RPMI-8226 leukemia
[2] = test system: 786-0 renal
[3] = test system: A498 renal
[4] = test system: UO-31 renal
[5] = test system: IGROV1 ovarian
[6] = test system: SR leukemia
[7] = test system: LOX IMVI melanoma
[8] = test system: SK-MEL-2 melanoma
[9] = test system: HCT-15 colon
[10] = test system: SW-620 colon
[11] = test system: OVCAR-4 ovarian
[12] = test system: OVCAR-3 ovarian
[13] = test system: T-47D breast
[14] = test system: NCI/ADR-RES ovarian
[15] = test system: CCRF-CEM leukemia
[16] = test system: M14 melanoma

Row | SMILES | TGI [1] | TGI [2] | TGI [3] | TGI [4] | TGI [5] | TGI [6] | TGI [7] | TGI [8] | TGI [9] | TGI [10] | TGI [11] | TGI [12] | TGI [13] | TGI [14] | TGI [15] | TGI [16]
1 | C=C1CC(Cn2cc(C)c(=O)[nH]c2=O)(c2ccc(-c3ccccc3)cc2)OC1=O (stereo unspecified) | 1.9 µM | 2.22 µM | 16.9 µM | 11.5 µM | 3.74 µM | 12.8 µM | 3.49 µM | 4.19 µM | 3.72 µM | 1.91 µM | 6.76 µM | 1.66 µM | 5.51 µM | 13.8 µM |  | 
2 | CCCCCC(=O)OCC1(CO)C/C(=C\CC(C(C)C)C(C)C)C(=O)O1 (stereo unspecified) |  | > 100 µM | > 100 µM | > 100 µM | > 100 µM | > 100 µM | 70 µM | > 100 µM | > 100 µM | 64.4 µM | > 100 µM | > 100 µM | > 100 µM | > 100 µM | > 100 µM | > 100 µM
3 | COC(=O)/C=C1/N=C(N(C)/N=C/c2ccccc2)NC1=O |  | > 100 µM |  | > 100 µM | > 100 µM | > 100 µM | > 100 µM | > 100 µM | > 100 µM | > 100 µM | > 100 µM | > 100 µM | > 100 µM | > 100 µM | > 100 µM | > 100 µM
4 | CC(=O)O[C@H]1CC[C@@]2(C)C(=CC[C@@H]3[C@@H]2CC[C@]2(C)C(=N/O)/C(=C/c4ccc([N+](=O)[O-])cc4)C[C@@H]32)C1 | > 100 µM | 27.3 µM | 25.5 µM | 26 µM | 55.8 µM |  | > 100 µM | 17.5 µM | > 100 µM | > 100 µM | > 100 µM | 11.3 µM | 2.46 µM | > 100 µM | > 100 µM | 47.7 µM
5 | C#CCOC(=O)C(N)CSSCC(N)C(=O)O (stereo unspecified) | > 100 µM | > 100 µM | > 100 µM | > 100 µM | > 100 µM | > 100 µM | > 100 µM | > 100 µM | > 100 µM | > 100 µM | > 100 µM |  | > 100 µM | > 100 µM | > 100 µM | > 100 µM
6 | O=c1cc(CC(O)(C(F)(F)Cl)C(F)(F)Cl)[nH]n1-c1ccccc1 | > 100 µM | > 100 µM | > 100 µM | > 100 µM | > 100 µM | > 100 µM | > 100 µM |  | > 100 µM | > 100 µM | > 100 µM |  | > 100 µM | > 100 µM | > 100 µM | > 100 µM
7 | c1ccc2c3c([nH]c2c1)C1c2[nH]c4ccccc4c2CCN1CC3 | > 100 µM | 25.8 µM | 34.4 µM | 18.5 µM | 31.1 µM | > 100 µM | 34.8 µM | 64.2 µM | 26.9 µM | 45.5 µM | 18.7 µM | 25.1 µM | 37.1 µM | 5.47 µM | > 100 µM | 
8 | COc1ccc(-n2c(C)nc3ccc(NC4OCC(O)C(O)C4O)cc3c2=O)cc1 (stereo unspecified) | 49.4 µM and 61.6 µM | > 100 µM | > 100 µM | > 100 µM | > 100 µM | 68.4 µM and 60.4 µM | 42.6 µM and 50.8 µM | > 100 µM | 65.8 µM and 80.8 µM | > 100 µM and 72.6 µM | > 100 µM | > 100 µM | > 100 µM | > 100 µM |  | 
